Source: patent US12637430B2, “Interleukin-17 (IL-17) inhibitors” (priority 2020, dated 2026)

Experiments:
human IL-17A protein = molecular target: T1, human IL-17A protein (Homo sapiens, UniProt Q16552); experiment: Inhibition of chemokine GROα/CXCL1 generation induced by human IL-17A protein in HT-29 cell; format: cell-based
T1 construct: purchased R&D 317-ILB
T1 sequence (Q16552 20-155 limits assumed): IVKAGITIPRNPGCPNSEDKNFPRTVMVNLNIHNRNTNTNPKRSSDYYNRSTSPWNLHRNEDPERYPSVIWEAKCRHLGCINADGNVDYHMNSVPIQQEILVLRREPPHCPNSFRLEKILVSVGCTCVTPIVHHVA
Method: HT-29 (Zhongyuan Gongchuang Technology Co., Ltd. of Chengdu, Sichuan) was added to a 96-well plate at 5×10^4 cells/well, and cultured overnight in a incubator at 37° C. A mixture of 30 ng/mL of human IL-17A protein (R&D, #317-ILB) and IL-17A small molecule inhibitors with gradient concentrations or 0.3 μg/mL of positive control IL-17A antibody (R&D, #AF-317-NA) was incubated at 37° C. for 1 h, and then added to the above-mentioned 96-well plate, and incubated with HT-29 cells at 37° C. for 48 hours. Then the GROα level in the cell culture supernatant was detected by an ELISA kit (Cisbio, #62HCXC1PEG) of the GROα.
According to the methods described in Experimental Examples 1 and 2, the compounds prepared in the above-mentioned examples were subjected to the experiment on inhibition of chemokine GROα/CXCL1 generation induced by human IL-17A protein in HT-29 cell.

human IL-17A = molecular target: T2, human IL-17A (Homo sapiens, UniProt Q16552); experiment: IL-17A enzyme-linked immunosorbent assay (competitive ELISA, IL-17A/IL-17R binding)
T2 construct: purchased Sino Biological Inc. 12047-H07B
T2 sequence (Q16552 24-155): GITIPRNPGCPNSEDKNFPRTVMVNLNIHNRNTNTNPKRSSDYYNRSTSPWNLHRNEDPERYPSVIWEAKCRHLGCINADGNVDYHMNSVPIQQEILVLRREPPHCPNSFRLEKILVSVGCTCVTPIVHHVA
Method: The inhibition of receptor-ligand binding by human IL-17A inhibitors was quantified by competitive ELISA. 0.2 μg/mL of IL-17A (Sino Biological Inc. Cat #12047-H07B) was added in a 96-well plate at 100 μl per well for incubation for 30 min under 37° C. The 96-well plate was washed with PBST (PBS, 0.05% Tween-20) at 200 μl per well for 4 times, and then added with 200 μl of 5% skim milk and placed on a shaker for incubation at 25° C. for 30 min. The compound to be tested was prepared at 100× concentration ranging from 0.003 μM to 30 μM. After washed with PBST (PBS, 0.05% Tween-20) 4 times, the plate was added with 89 μl of PBST and 1 μl of the compound to be tested at 100× concentration followed by uniformly mixing and pre-incubation at 25° C. for 10 min. Then the plate was added with 10 μl of 16 nM IL-17R, and incubated on a shaker at 25° C. for 30 min. After washed for 4 times, the plate was added with 100 μl of anti-Fc-tag horseradish peroxidase (HRP)-conjugated antibody, and incubated on a shaker at 25° C. for 30 min. After washed 4 times, the plate was added with 100 μl of 3,3′, 5,5″-tetramethylbenzidine (TMB) substrate solution, and incubated at 25° C. in the dark. Then the plate was added with 20% HCl, followed by detection of the light absorption value at a wavelength of 450 nm by a microplate reader. The compounds prepared in the above examples were tested for human IL-17A inhibitory activity according to the above method.

SMILES | IC50 (human IL-17A protein) [µM] | IC50 (human IL-17A) [µM]
Cc1n[nH]c(C)c1-c1ncc(NC(=O)[C@@H](NC(=O)c2ccnn2C(C)C)C(C2CC2)C2(C)CC2)cc1F (stereo partly shown) [Compound 58] | 0.221 | 0.042
CCN1CCN(c2ccc(NC(=O)[C@@H](NC(=O)c3ccnn3C)C(C3CCC3)C3(C)CC3)cn2)[C@H](C)C1 (stereo partly shown) [Compound 21] |  | 16.9
Cc1n[nH]c(C)c1-c1ccc(NC(=O)[C@@H](NC(=O)c2ccnn2C(C)C)C(C2CC2)C2CC2)cn1 [Compound 40] | 0.781 | 0.117
CCn1nccc1C(=O)N[C@H](C(=O)Nc1ccc(-c2c(C)n[nH]c2C)nc1)C(C1CC1)C1CC1 [Compound 39] | 0.514 | 0.128
CC[C@@H]1COCCN1c1ccc(NC(=O)[C@@H](NC(=O)c2ccnn2C)C(C2CCC2)C2(C)CC2)cn1 (stereo partly shown) [Compound 15] | 2.82 | 0.049
CCn1nccc1C(=O)N[C@H](C(=O)Nc1cnc(-c2c(C)n[nH]c2C)c(F)c1)C(C1CC1)C1CC1 [Compound 52] | 0.321 | 0.098
Cn1nccc1C(=O)N[C@H](C(=O)Nc1cnc(C2CCOCC2)c(F)c1)C(C1CCC1)C1(C)CC1 (stereo partly shown) [Compound 4] | 0.598 | 0.064
CCc1nonc1C(=O)N[C@H](C(=O)Nc1ccc(-c2c(C)n[nH]c2C)nc1)C(C1CC1)C1CC1 [Compound 43] |  | 0.457
C[C@@H]1CN(c2ccc(NC(=O)[C@@H](NC(=O)c3ccnn3C)C(C3CCC3)C3(C)CC3)cn2)CCO1 (stereo partly shown) [Compound 16] | 11.7 | 0.1
CC[C@H]1COCCN1c1ccc(NC(=O)[C@@H](NC(=O)c2ccnn2C)C(C2CCC2)C2(C)CC2)cn1 (stereo partly shown) [Compound 14] | 7.27 | 0.021
Cc1n[nH]c(C)c1-c1ccc(NC(=O)[C@@H](NC(=O)c2ccnn2C)C(C2CC2)C2(C)CC2)cn1 (stereo partly shown) [Compound 53] | 0.472 | 0.055
Cn1nccc1C(=O)N[C@H](C(=O)Nc1ccc(N2CCOC[C@H]2CO)nc1)C(C1CCC1)C1(C)CC1 (stereo partly shown) [Compound 18] |  | 0.247
Cc1nonc1C(=O)N[C@H](C(=O)Nc1cnc(-c2c(C)n[nH]c2C)c(F)c1)C(C1CC1)C1(C)CC1 (stereo partly shown) [Compound 59] | 4.68 | 0.087
Cn1nccc1C(=O)N[C@H](C(=O)Nc1ccc(C(C)(C)c2nnc(C3CCC3)o2)cc1)C(C1CCC1)C1(C)CC1 (stereo partly shown) [Compound 36] |  | 1.28
Cn1nccc1C(=O)N[C@H](C(=O)Nc1ccc(C2CCOCC2)cn1)C(C1CCC1)C1(C)CC1 (stereo partly shown) [Compound 3] | 1.57 | 0.067
Cc1conc1C(=O)N[C@H](C(=O)Nc1ccc(-c2c(C)n[nH]c2C)nc1)C(C1CC1)C1CC1 [Compound 44] |  | 2.78
Cc1n[nH]c(C)c1-c1ccc(NC(=O)[C@@H](NC(=O)c2ncnn2C)C(C2CC2)C2CC2)cn1 [Compound 47] |  | 15.5
Cc1n[nH]c(C)c1-c1ccc(NC(=O)[C@@H](NC(=O)c2ccn(C3CC3)n2)C(C2CC2)C2CC2)cn1 [Compound 49] |  | 0.537
CC(C)[C@@H]1COCCN1c1ccc(NC(=O)[C@@H](NC(=O)c2ccnn2C)C(C2CCC2)C2(C)CC2)cn1 (stereo partly shown) [Compound 13] |  | 0.642
CC(C)[C@H]1COCCN1c1ccc(NC(=O)[C@@H](NC(=O)c2ccnn2C)C(C2CCC2)C2(C)CC2)cn1 (stereo partly shown) [Compound 12] | 13.6 | 0.04
CN1C(=O)C2(CCOCC2)c2ccc(NC(=O)[C@@H](NC(=O)c3ccnn3C)[C@H](c3ccccc3Cl)C3(C)CC3)cc21 [Compound 27] | 1.08 | 0.104
Cn1nccc1C(=O)N[C@H](C(=O)Nc1cnc(N2CCOCC2)c(F)c1)C(C1CCC1)C1(C)CC1 (stereo partly shown) [Compound 19] | 3.16 | 0.073
Cn1nccc1C(=O)N[C@H](C(=O)Nc1ccc2c(c1)NC(=O)C21CCOCC1)[C@H](c1ccccc1Cl)C1(C)CC1 [Compound 26] | 0.25 | 0.096

SMILES | IC50 (human IL-17A protein) [µM] | IC50 (human IL-17A) [µM]
Cn1nccc1C(=O)N[C@H](C(=O)Nc1ccc2c(c1)NC(=O)C21CCOCC1)C(C1CCC1)C1(C)CC1 (stereo partly shown) [Compound 23] | 0.065 | 0.043
CC1CN(C)CCN1c1ccc(NC(=O)[C@@H](NC(=O)c2ccnn2C)C(C2CCC2)C2(C)CC2)cn1 (stereo partly shown) [Compound 20] |  | 9.34
CCc1nocc1C(=O)N[C@H](C(=O)Nc1ccc(-c2c(C)n[nH]c2C)nc1)C(C1CC1)C1CC1 [Compound 42] |  | 0.17
C[C@H]1COCCN1c1ccc(NC(=O)[C@@H](NC(=O)c2ccnn2C)C(C2CCC2)C2(C)CC2)cn1 (stereo partly shown) [Compound 11] | 10.8 | 0.056
Cc1n[nH]c(C)c1-c1ccc(NC(=O)[C@@H](NC(=O)c2ccnn2C)C(C2CC2)C2CC2)cn1 [Compound 38] | 4.46 | 0.385
Cn1nccc1C(=O)N[C@H](C(=O)Nc1ccc(C2CCOCC2)cc1)[C@H](c1ccccc1Cl)C1(C)CC1 [Compound 62] | 0.373 | 0.056
Cc1nonc1C(=O)N[C@H](C(=O)Nc1ccc(-c2c(C)n[nH]c2C)nc1)C(C1CC1)C1CC1 [Compound 41] | 1.47 | 1.14
Cc1n[nH]c(C)c1-c1ccc(NC(=O)[C@@H](NC(=O)c2ccnn2C(C)C)C(C2CC2)C2(C)CC2)cn1 (stereo partly shown) [Compound 56] | 0.087 | 0.035
C[C@@H]1CN(c2ccc(NC(=O)[C@@H](NC(=O)c3ccnn3C)C(C3CCC3)C3(C)CC3)cn2)CCN1 (stereo partly shown) [Compound 24] |  | > 40
Cc1n[nH]c(C)c1-c1ccc(NC(=O)[C@@H](NC(=O)c2ccnn2C)C(C2CCC2)C2(C)CC2)cn1 (stereo partly shown) [Compound 37] | 0.257 | 0.018
Cc1n[nH]c(C)c1-c1ccc(NC(=O)[C@@H](NC(=O)c2ccnn2C2CC2)C(C2CC2)C2CC2)cn1 [Compound 50] |  | 27.9
CCn1nccc1C(=O)N[C@H](C(=O)Nc1ccc(-c2c(C)n[nH]c2C)nc1)C(C1CC1)C1(C)CC1 (stereo partly shown) [Compound 54] | 0.238 | 0.047
Cn1nccc1C(=O)N[C@H](C(=O)Nc1ccc(N2CCOCC2)nc1)C(C1CCC1)C1(C)CC1 (stereo partly shown) [Compound 8] |  | 0.236
Cc1nonc1C(=O)N[C@H](C(=O)Nc1ccc(-c2c(C)n[nH]c2C)nc1)C(C1CC1)C1(C)CC1 (stereo partly shown) [Compound 55] | 0.866 | 0.053
CC(C)N1CCN(c2ccc(NC(=O)[C@@H](NC(=O)c3ccnn3C)C(C3CCC3)C3(C)CC3)cn2)C(C)C1 (stereo partly shown) [Compound 22] |  | 13.7
C[C@@H]1COCCN1c1ccc(NC(=O)[C@@H](NC(=O)c2ccnn2C)C(C2CCC2)C2(C)CC2)cn1 (stereo partly shown) [Compound 10] | 7.4 | 0.041
Cn1nccc1C(=O)N[C@H](C(=O)Nc1ccc(N2CCOCC2C2CC2)nc1)C(C1CCC1)C1(C)CC1 (stereo partly shown) [Compound 17] |  | 0.136
Cc1nocc1C(=O)N[C@H](C(=O)Nc1ccc(-c2c(C)n[nH]c2C)nc1)C(C1CC1)C1CC1 [Compound 46] | 0.856 | 0.111
Cc1n[nH]c(C)c1-c1ccc(NC(=O)[C@@H](NC(=O)c2nocc2C(C)C)C(C2CC2)C2CC2)cn1 [Compound 45] |  | 0.511
Cc1n[nH]c(C)c1-c1ccc(NC(=O)[C@@H](NC(=O)c2nonc2C(C)C)C(C2CC2)C2CC2)cn1 [Compound 48] | 3.03 | 0.157
Cn1nccc1C(=O)N[C@H](C(=O)Nc1ccc(C2CCOCC2)cc1)C(C1CCC1)C1(C)CC1 (stereo partly shown) [Compound 2] | 0.555 | 0.066
Cn1nccc1C(=O)N[C@H](C(=O)Nc1ccc(N2CCOCC2)nc1)[C@H](c1ccccc1Cl)C1(C)CC1 [Compound 60] | 8.02 | 0.327
Cn1nccc1C(=O)N[C@H](C(=O)Nc1ccc2c(c1)NC(=O)C21CCOCC1)[C@H](c1ccccc1)C1(C)CC1 [Compound 25] | 0.42 | 0.032
